Measured values reported in the supplement of paper PMC11451515.

Tested on: SEM cells
Experiment: cell viability relative to DMSO control; higher = less cytotoxic
Conditions: 48 h
Outline: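 NOMO1, SEM and P12-Ichikawa leukemia cells spent at least four passages adapting to each medium before use. They were seeded at 500 cells/well (NOMO1, SEM) or 1000 cells/well (P12-Ichikawa) in 5 μl in 1536-well plates and pin-dosed with library compounds in DMSO at 11 threefold steps from 47 μM down to 0.79 nM. After 48 h at 37°C, CellTiter-Glo One luminescence was read. Viability is reported as a percentage of the DMSO wells on each plate, with cell-free wells as background.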

[1] = HPLM + 10% dialyzed FBS, 0.000781 µM
[2] = HPLM + 10% dialyzed FBS, 0.00234 µM
[3] = HPLM + 10% dialyzed FBS, 0.00702 µM
[4] = HPLM + 10% dialyzed FBS, 0.0211 µM
[5] = HPLM + 10% dialyzed FBS, 0.0632 µM
[6] = HPLM + 10% dialyzed FBS, 0.19 µM
[7] = HPLM + 10% dialyzed FBS, 0.569 µM
[8] = HPLM + 10% dialyzed FBS, 1.71 µM
[9] = HPLM + 10% dialyzed FBS, 5.12 µM
[10] = HPLM + 10% dialyzed FBS, 15.4 µM
[11] = HPLM + 10% dialyzed FBS, 46.1 µM
[12] = RPMI 5 mM glucose + 10% FBS, 0.000781 µM
[13] = RPMI 5 mM glucose + 10% FBS, 0.00234 µM
[14] = RPMI 5 mM glucose + 10% FBS, 0.00702 µM
[15] = RPMI 5 mM glucose + 10% FBS, 0.0211 µM
[16] = RPMI 5 mM glucose + 10% FBS, 0.0632 µM
[17] = RPMI 5 mM glucose + 10% FBS, 0.19 µM
[18] = RPMI 5 mM glucose + 10% FBS, 0.569 µM
[19] = RPMI 5 mM glucose + 10% FBS, 1.71 µM
[20] = RPMI 5 mM glucose + 10% FBS, 5.12 µM
[21] = RPMI 5 mM glucose + 10% FBS, 15.4 µM
[22] = RPMI 5 mM glucose + 10% FBS, 46.1 µM
[23] = RPMI 5 mM glucose + 10% dialyzed FBS, 0.000781 µM
[24] = RPMI 5 mM glucose + 10% dialyzed FBS, 0.00234 µM
[25] = RPMI 5 mM glucose + 10% dialyzed FBS, 0.00702 µM
[26] = RPMI 5 mM glucose + 10% dialyzed FBS, 0.0211 µM
[27] = RPMI 5 mM glucose + 10% dialyzed FBS, 0.0632 µM
[28] = RPMI 5 mM glucose + 10% dialyzed FBS, 0.19 µM
[29] = RPMI 5 mM glucose + 10% dialyzed FBS, 0.569 µM
[30] = RPMI 5 mM glucose + 10% dialyzed FBS, 1.71 µM
[31] = RPMI 5 mM glucose + 10% dialyzed FBS, 5.12 µM
[32] = RPMI 5 mM glucose + 10% dialyzed FBS, 15.4 µM
[33] = RPMI 5 mM glucose + 10% dialyzed FBS, 46.1 µM

Structure (SMILES) | cell viability [1] [%] | cell viability [2] [%] | cell viability [3] [%] | cell viability [4] [%] | cell viability [5] [%] | cell viability [6] [%] | cell viability [7] [%] | cell viability [8] [%] | cell viability [9] [%] | cell viability [10] [%] | cell viability [11] [%] | cell viability [12] [%] | cell viability [13] [%] | cell viability [14] [%] | cell viability [15] [%] | cell viability [16] [%] | cell viability [17] [%] | cell viability [18] [%] | cell viability [19] [%] | cell viability [20] [%] | cell viability [21] [%] | cell viability [22] [%] | cell viability [23] [%] | cell viability [24] [%] | cell viability [25] [%] | cell viability [26] [%] | cell viability [27] [%] | cell viability [28] [%] | cell viability [29] [%] | cell viability [30] [%] | cell viability [31] [%] | cell viability [32] [%] | cell viability [33] [%]
CC(=O)Oc1ccccc1C(=O)O | 104 | 99.4 | 105 | 106 | 102 | 106 | 105 | 97.3 | 88.2 | 99.9 | 96.7 | 110 | 104 | 100 | 120 | 107 | 104 | 120 | 111 | 99.3 | 105 | 95.1 | 102 | 99.4 | 109 | 111 | 108 | 102 | 113 | 108 | 108 | 100 | 111
Cl.Cl.Cl.O[C@@H](COc1cccc2ncccc12)CN1CCN([C@@H]2c3ccccc3[C@@H]3[C@H](c4ccccc42)C3(F)F)CC1 | 88.2 | 103 | 82.3 | 83.8 | 105 | 90 | 84.5 | 89.6 | 91.9 | 71.2 | 73.4 | 89.3 | 100 | 75.7 | 95.7 | 98.6 | 82.6 | 86.2 | 94.5 | 100 | 97.3 | 3.4 | 94.1 | 92.1 | 85.7 | 93.9 | 101 | 102 | 86.9 | 106 | 85.3 | 105 | 83.5
COC1=CC=CC2=C1C(=NC(=N2)C3=CC=CS3)NN4C(=O)\C=C(C)/C4=O | 86.8 | 96.3 | 101 | 87.5 | 72.4 | 69.1 | 42.5 | 29.7 | 11.3 | 2.5 | 2.94 | 90.3 | 99 | 93.5 | 92.2 | 81.9 | 75.5 | 59.5 | 36 | 5.68 | 1.13 | 2.39 | 87.3 | 87.2 | 88.5 | 78.1 | 76.3 | 83.1 | 57.4 | 41.3 | 5.19 | 1.14 | 2.21
CC(=O)N(C)c1cccc(-c2ccnc3c(C(=O)c4cccs4)cnn23)c1 | 99.9 | 88.7 | 104 | 37.5 | 98.7 | 99.4 | 107 | 103 | 110 | 90 | 91.7 | 108 | 107 | 95.5 | 37.7 | 112 | 101 | 94.1 | 98.5 | 101 | 98.5 | 97 | 104 | 99.7 | 87 | 46.9 | 100 | 101 | 102 | 109 | 118 | 112 | 99.6
CC(C)n1nc(-c2cc3cc(O)ccc3[nH]2)c2c(N)ncnc21 | 93.3 | 104 | 111 | 94.3 | 81 | 84.4 | 45.2 | 52.9 | 25.9 | 16.7 | 6.97 | 106 | 107 | 114 | 136 | 108 | 85.4 | 66.3 | 66 | 38 | 23.6 | 8.3 | 90.8 | 99.4 | 92.4 | 87.7 | 94.8 | 87.6 | 48.7 | 52.4 | 35.4 | 20.9 | 6.33
CCCCCOC(=O)NC\1=N\C(=O)N(\C=C1F)[C@@H]2O[C@H](C)[C@@H](O)[C@H]2O | 94 | 111 | 116 | 125 | 109 | 112 | 120 | 114 | 106 | 101 | 100 | 104 | 89.8 | 95.7 | 109 | 107 | 88.7 | 98.1 | 98.1 | 98.4 | 94.4 | 85.8 | 96.6 | 92.1 | 105 | 95.9 | 106 | 109 | 95.6 | 108 | 96.8 | 93.7 | 86.2
O=C(NCC[S+](=O)([O-])c1ccc(C(F)(F)F)cn1)c1ccc(Cl)cc1 | 115 | 126 | 107 | 117 | 111 | 114 | 103 | 106 | 101 | 104 | 107 | 94.5 | 111 | 89.7 | 96.7 | 86.8 | 104 | 99.2 | 81 | 80.6 | 109 | 87.1 |  |  |  |  |  |  |  |  |  |  | 
CCC1(C)CC(=O)NC1=O (stereo not drawn) | 107 | 102 | 109 | 112 | 114 | 114 | 106 | 95.5 | 110 | 94.5 | 81.7 | 113 | 101 | 107 | 107 | 103 | 106 | 106 | 93.7 | 103 | 92.3 | 72.3 | 93.7 | 114 | 117 | 114 | 116 | 108 | 110 | 99.7 | 108 | 94 | 74.3
